# Assay results published in PubChem BioAssay (NCI).
#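 Following 48 hours of exposure in 96-well plates, responses at five concentrations were used to interpolate endpoints linearly. Here, GI50 denotes the concentration required for 50% inhibition of growth. TGI is the concentration that stops growth completely.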
# How the values were obtained:
# Test in all cases: growth of human tumour cells (NCI), 48 h
# EKVX NSCLC = test system: EKVX NSCLC
# SK-MEL-5 melanoma = test system: SK-MEL-5 melanoma
# CCRF-CEM leukemia = test system: CCRF-CEM leukemia
# CAKI-1 renal = test system: CAKI-1 renal
# K-562 leukemia = test system: K-562 leukemia
# HOP-92 NSCLC = test system: HOP-92 NSCLC
# NCI-H23 lung = test system: NCI-H23 lung
# NCI-H226 lung = test system: NCI-H226 lung
# RPMI-8226 leukemia = test system: RPMI-8226 leukemia
# IGROV1 ovarian = test system: IGROV1 ovarian
compound,measurement,setting,value
OC1(c2ccc(Cl)cc2)c2ccccc2C2=NCc3ccccc3CN21 (stereo not drawn),TGI,EKVX NSCLC,20.6 µM
same,TGI,SK-MEL-5 melanoma,33.6 µM
same,TGI,CCRF-CEM leukemia,> 69.6 µM
same,TGI,CAKI-1 renal,37.7 µM
same,TGI,K-562 leukemia,> 58 µM
same,TGI,HOP-92 NSCLC,41.4 µM
same,TGI,NCI-H23 lung,23.7 µM
same,TGI,NCI-H226 lung,20.8 µM
same,TGI,RPMI-8226 leukemia,> 48.6 µM
same,TGI,IGROV1 ovarian,9.63 µM
Cc1nc2sccn2c1C(=O)OCCOCCOCCOCCOC(=O)c1c(C)nc2sccn12,TGI,EKVX NSCLC,> 100 µM
same,TGI,SK-MEL-5 melanoma,35.5 µM
same,TGI,CAKI-1 renal,> 100 µM
same,TGI,K-562 leukemia,> 100 µM
same,TGI,HOP-92 NSCLC,> 100 µM
same,TGI,NCI-H23 lung,> 100 µM
same,TGI,NCI-H226 lung,> 100 µM
same,TGI,RPMI-8226 leukemia,> 100 µM
same,TGI,IGROV1 ovarian,> 100 µM
O=c1c(S(=O)(=O)Oc2ccccc2)coc2cc(F)ccc12,TGI,EKVX NSCLC,> 100 µM
same,TGI,SK-MEL-5 melanoma,> 100 µM
same,TGI,CCRF-CEM leukemia,> 100 µM
same,TGI,CAKI-1 renal,> 100 µM
same,TGI,K-562 leukemia,> 100 µM
same,TGI,NCI-H23 lung,> 100 µM
same,TGI,NCI-H226 lung,73.6 µM
same,TGI,IGROV1 ovarian,> 100 µM
CCOC(=O)c1ccc(NC(NC(=O)CC)(C(F)(F)F)C(F)(F)F)cc1,TGI,EKVX NSCLC,> 100 µM
same,TGI,SK-MEL-5 melanoma,> 100 µM
same,TGI,CCRF-CEM leukemia,> 100 µM
same,TGI,CAKI-1 renal,> 100 µM
same,TGI,K-562 leukemia,> 100 µM
same,TGI,HOP-92 NSCLC,> 100 µM
same,TGI,NCI-H23 lung,> 100 µM
same,TGI,NCI-H226 lung,> 100 µM
same,TGI,RPMI-8226 leukemia,> 100 µM
same,TGI,IGROV1 ovarian,> 100 µM
CC12CCC(C1)C(C)(C)C2OC(=O)c1ccccc1C(=O)O (stereo not drawn),TGI,EKVX NSCLC,> 100 µM
same,TGI,SK-MEL-5 melanoma,> 100 µM
same,TGI,CAKI-1 renal,> 100 µM
same,TGI,K-562 leukemia,> 100 µM
same,TGI,HOP-92 NSCLC,> 100 µM
same,TGI,NCI-H23 lung,> 100 µM
same,TGI,NCI-H226 lung,> 100 µM
same,TGI,RPMI-8226 leukemia,> 100 µM
same,TGI,IGROV1 ovarian,> 100 µM
N#CI1OC(C(F)(F)F)(C(F)(F)F)c2ccccc21,TGI,EKVX NSCLC,30.1 µM
same,TGI,SK-MEL-5 melanoma,33.8 µM
same,TGI,CCRF-CEM leukemia,> 100 µM
same,TGI,CAKI-1 renal,28 µM
same,TGI,K-562 leukemia,> 100 µM
same,TGI,HOP-92 NSCLC,42.5 µM
same,TGI,NCI-H23 lung,36 µM
same,TGI,NCI-H226 lung,49 µM
same,TGI,RPMI-8226 leukemia,> 100 µM
same,TGI,IGROV1 ovarian,31.8 µM
C/C(NC(=O)c1ccccc1)=C(/C(=O)c1ccccc1)[C@@H]1OC(C)(C)O[C@@H]1[C@H]1COC(C)(C)O1,TGI,EKVX NSCLC,48.4 µM
same,TGI,SK-MEL-5 melanoma,35.6 µM
same,TGI,CAKI-1 renal,> 100 µM
same,TGI,K-562 leukemia,52.8 µM
same,TGI,HOP-92 NSCLC,86.6 µM
same,TGI,NCI-H23 lung,93.9 µM
same,TGI,NCI-H226 lung,> 100 µM
same,TGI,RPMI-8226 leukemia,47.7 µM
same,TGI,IGROV1 ovarian,42 µM
CCCN(CCC)c1c([N+](=O)[O-])cc(C(=O)N(C)C)cc1[N+](=O)[O-],TGI,EKVX NSCLC,> 100 µM
same,TGI,SK-MEL-5 melanoma,28.9 µM
same,TGI,CCRF-CEM leukemia,> 100 µM
same,TGI,CAKI-1 renal,> 100 µM
same,TGI,K-562 leukemia,> 100 µM
same,TGI,NCI-H23 lung,> 100 µM
same,TGI,RPMI-8226 leukemia,> 100 µM
same,TGI,IGROV1 ovarian,> 100 µM
CC(C)=CCC/C(C)=C/CC/C(C)=C/CSc1ccc(Cl)cc1C(=O)O,TGI,EKVX NSCLC,37 µM
same,TGI,SK-MEL-5 melanoma,44.9 µM
same,TGI,CCRF-CEM leukemia,48.9 µM
same,TGI,CAKI-1 renal,43.5 µM
same,TGI,K-562 leukemia,64.9 µM
same,TGI,HOP-92 NSCLC,45.2 µM
same,TGI,NCI-H23 lung,34.9 µM
same,TGI,NCI-H226 lung,36.8 µM
same,TGI,RPMI-8226 leukemia,55.6 µM
same,TGI,IGROV1 ovarian,34.8 µM
Cc1ccc(NC(=O)CC(=O)N2N=C(c3ccccc3)C(N=Nc3ccc(S(=O)(=O)CCOS(=O)(=O)O)cc3)C2=O)cc1 (stereo not drawn),TGI,EKVX NSCLC,> 100 µM
same,TGI,SK-MEL-5 melanoma,> 100 µM
same,TGI,CCRF-CEM leukemia,> 100 µM
same,TGI,CAKI-1 renal,> 100 µM
same,TGI,K-562 leukemia,> 100 µM
same,TGI,HOP-92 NSCLC,> 100 µM
same,TGI,NCI-H23 lung,> 100 µM
same,TGI,NCI-H226 lung,> 100 µM
same,TGI,RPMI-8226 leukemia,> 100 µM
same,TGI,IGROV1 ovarian,> 100 µM
C/C(=N\n1c(Cc2ccccc2)n[nH]c1=O)c1ccc([N+](=O)[O-])cc1,TGI,EKVX NSCLC,> 100 µM
same,TGI,SK-MEL-5 melanoma,> 100 µM
same,TGI,CAKI-1 renal,> 100 µM
same,TGI,K-562 leukemia,> 100 µM
same,TGI,HOP-92 NSCLC,> 100 µM
same,TGI,NCI-H23 lung,> 100 µM
same,TGI,NCI-H226 lung,> 100 µM
same,TGI,RPMI-8226 leukemia,> 100 µM
same,TGI,IGROV1 ovarian,> 100 µM
O=C(CCC(=O)OCC1OC(O)(CC2OC(CO)C(O)C(O)C2O)C(O)C1O)OCc1ccccc1 (stereo not drawn),TGI,EKVX NSCLC,> 100 µM
same,TGI,SK-MEL-5 melanoma,> 100 µM
same,TGI,CCRF-CEM leukemia,> 100 µM
same,TGI,CAKI-1 renal,> 100 µM
same,TGI,K-562 leukemia,> 100 µM
same,TGI,HOP-92 NSCLC,> 100 µM
same,TGI,NCI-H23 lung,> 100 µM
same,TGI,NCI-H226 lung,> 100 µM
same,TGI,IGROV1 ovarian,> 100 µM
CC(C)(Oc1ccc(C(=O)c2ccc(Cl)cc2)cc1Cl)C(=O)N1CCN(c2ccccc2)CC1,TGI,EKVX NSCLC,> 100 µM
same,TGI,SK-MEL-5 melanoma,> 100 µM
same,TGI,CCRF-CEM leukemia,> 100 µM
same,TGI,K-562 leukemia,> 100 µM
same,TGI,HOP-92 NSCLC,> 100 µM
same,TGI,NCI-H23 lung,> 100 µM
same,TGI,RPMI-8226 leukemia,> 100 µM
same,TGI,IGROV1 ovarian,> 100 µM
O=C(c1ccccc1)n1[nH]c(=O)n(-c2ccc(Cl)cc2)c1=O,TGI,EKVX NSCLC,> 100 µM
same,TGI,SK-MEL-5 melanoma,> 100 µM
same,TGI,CCRF-CEM leukemia,> 100 µM
same,TGI,CAKI-1 renal,> 100 µM
same,TGI,K-562 leukemia,> 100 µM
same,TGI,NCI-H23 lung,> 100 µM
same,TGI,NCI-H226 lung,> 100 µM
same,TGI,RPMI-8226 leukemia,> 100 µM
same,TGI,IGROV1 ovarian,> 100 µM
COC1=C(OC)C(=O)C(Cc2c(Cl)nc3n2CCS3)=C(C)C1=O,TGI,EKVX NSCLC,26.3 µM
same,TGI,SK-MEL-5 melanoma,23.9 µM
same,TGI,CCRF-CEM leukemia,8.98 µM
same,TGI,CAKI-1 renal,46.7 µM
same,TGI,K-562 leukemia,39.9 µM
same,TGI,NCI-H23 lung,47.5 µM
same,TGI,RPMI-8226 leukemia,26.9 µM
same,TGI,IGROV1 ovarian,30.5 µM
O=[N+]([O-])c1ccc(Cl)cc1N/N=C/c1cccs1,TGI,EKVX NSCLC,> 100 µM
same,TGI,SK-MEL-5 melanoma,> 100 µM
same,TGI,CCRF-CEM leukemia,> 100 µM
same,TGI,CAKI-1 renal,> 100 µM
same,TGI,K-562 leukemia,> 100 µM
same,TGI,NCI-H23 lung,> 100 µM
same,TGI,NCI-H226 lung,> 100 µM
same,TGI,RPMI-8226 leukemia,> 100 µM
same,TGI,IGROV1 ovarian,> 100 µM
Clc1cccc(N=C/C=C/Nc2cccc(Cl)c2)c1,TGI,SK-MEL-5 melanoma,44 µM
same,TGI,CAKI-1 renal,65.1 µM
same,TGI,HOP-92 NSCLC,> 100 µM
same,TGI,NCI-H23 lung,54 µM
same,TGI,RPMI-8226 leukemia,> 100 µM
same,TGI,IGROV1 ovarian,39.3 µM
CCCCNCC(O)c1cc(-c2ccc(C(F)(F)F)cc2)nc(-c2ccc(C(F)(F)F)cc2)c1 (stereo not drawn),GI50,SK-MEL-5 melanoma,1.77 µM
same,TGI,SK-MEL-5 melanoma,3.26 µM
same,GI50,CAKI-1 renal,1.71 µM
same,TGI,CAKI-1 renal,3.41 µM
Oc1ccccc1C=Nc1ccccc1N=Cc1ccccc1O,TGI,EKVX NSCLC,> 100 µM
same,TGI,SK-MEL-5 melanoma,> 100 µM
same,TGI,CCRF-CEM leukemia,> 100 µM
same,TGI,K-562 leukemia,> 100 µM
same,TGI,NCI-H23 lung,> 100 µM
same,TGI,NCI-H226 lung,> 100 µM
same,TGI,RPMI-8226 leukemia,> 100 µM
same,TGI,IGROV1 ovarian,> 100 µM
O=C1C=C(NCCc2cc(Br)c(O)c(Br)c2)C(=O)c2[nH]cnc21,TGI,EKVX NSCLC,> 100 µM
same,TGI,SK-MEL-5 melanoma,29 µM
same,TGI,CCRF-CEM leukemia,41.7 µM
same,TGI,CAKI-1 renal,> 100 µM
same,TGI,K-562 leukemia,> 100 µM
same,TGI,HOP-92 NSCLC,82.3 µM
same,TGI,NCI-H23 lung,50.8 µM
same,TGI,NCI-H226 lung,> 100 µM
same,TGI,IGROV1 ovarian,> 100 µM
CCOC(=O)O/N=C1/C(c2c(O)[nH]c3ccccc23)=Nc2ccccc21,TGI,EKVX NSCLC,13.5 µM
same,TGI,SK-MEL-5 melanoma,6.99 µM
same,TGI,CCRF-CEM leukemia,16.6 µM
same,TGI,CAKI-1 renal,14.5 µM
same,TGI,K-562 leukemia,> 100 µM
same,TGI,HOP-92 NSCLC,> 100 µM
same,TGI,NCI-H23 lung,25.5 µM
same,TGI,RPMI-8226 leukemia,> 100 µM
same,TGI,IGROV1 ovarian,30.9 µM
Cc1[nH]c(=O)[nH]c(=O)c1C(=O)N(CCO)Cc1ccccc1,TGI,EKVX NSCLC,> 100 µM
same,TGI,CCRF-CEM leukemia,> 100 µM
same,TGI,K-562 leukemia,> 100 µM
same,TGI,HOP-92 NSCLC,> 100 µM
same,TGI,NCI-H23 lung,> 100 µM
same,TGI,NCI-H226 lung,43.9 µM
same,TGI,RPMI-8226 leukemia,> 100 µM
same,TGI,IGROV1 ovarian,> 100 µM
CC(C)(C)OC(=O)NCCNC(=O)CN(CC(=O)O)C1CCCCC1N(CC(=O)O)CC(=O)O (stereo not drawn),TGI,SK-MEL-5 melanoma,> 100 µM
same,TGI,CCRF-CEM leukemia,> 100 µM
same,TGI,CAKI-1 renal,> 100 µM
same,TGI,K-562 leukemia,> 100 µM
same,TGI,HOP-92 NSCLC,> 100 µM
same,TGI,NCI-H23 lung,> 100 µM
same,TGI,NCI-H226 lung,> 100 µM
same,TGI,RPMI-8226 leukemia,> 100 µM
same,TGI,IGROV1 ovarian,> 100 µM
